Measured values: PubChem BioAssay AID1259407 (Chemical Carcinogenesis Research Information System (CCRIS), 2018)
Calls of active or inactive are those of the source. No rule for the calls is given here.

Tested on: CCRIS mutagenicity, Ames/micronucleus/aberration tests
Assay: CCRIS mutagenicity studies

## O=C(c1ccccc1)C(O)c1ccccc1 (stereo not drawn)
Test System: AMES SALMONELLA TYPHIMURIUM, Strain/Indicator: TA1535, Metabolic Activation: NONE, Method: STANDARD PLATE
  mutagenic call: inactive; negative
Test System: AMES SALMONELLA TYPHIMURIUM, Strain/Indicator: TA1535, Metabolic Activation: RAT LIVER S-9, AROCLOR 1254 (5%), Method: PREINCUBATION
  mutagenic call: inactive; negative
Test System: AMES SALMONELLA TYPHIMURIUM, Strain/Indicator: TA1535, Metabolic Activation: RAT LIVER S-9, AROCLOR 1254 (10%), Method: PREINCUBATION
  mutagenic call: inactive; negative
Test System: AMES SALMONELLA TYPHIMURIUM, Strain/Indicator: TA1535, Metabolic Activation: RAT, LIVER, S-9, AROCLOR 1254, Method: STANDARD PLATE
  mutagenic call: inactive; negative
Test System: AMES SALMONELLA TYPHIMURIUM, Strain/Indicator: TA1537, Metabolic Activation: NONE, Method: STANDARD PLATE
  mutagenic call: inactive; negative
Test System: AMES SALMONELLA TYPHIMURIUM, Strain/Indicator: TA1537, Metabolic Activation: RAT, LIVER, S-9, AROCLOR 1254, Method: STANDARD PLATE
  mutagenic call: inactive; negative
Test System: AMES SALMONELLA TYPHIMURIUM, Strain/Indicator: TA1538, Metabolic Activation: NONE, Method: STANDARD PLATE
  mutagenic call: inactive; negative
Test System: AMES SALMONELLA TYPHIMURIUM, Strain/Indicator: TA1538, Metabolic Activation: RAT, LIVER, S-9, AROCLOR 1254, Method: STANDARD PLATE
  mutagenic call: inactive; negative
Test System: AMES SALMONELLA TYPHIMURIUM, Strain/Indicator: TA2638, Metabolic Activation: RAT LIVER S-9, PHENOBARBITAL AND 5,6-BENZOFLAVONE, Method: STANDARD PLATE
  mutagenic call: inactive; negative
Test System: CHINESE HAMSTER OVARY, Strain/Indicator: CHO-K1-BH4 (HGPRT)/6-THIOGUANINE, Metabolic Activation: NONE, Method: SUSPENSION/PLATE
  mutagenic call: inactive; negative
Test System: CHINESE HAMSTER OVARY, Strain/Indicator: CHO-K1-BH4 (HGPRT)/6-THIOGUANINE, Metabolic Activation: S-9, Method: SUSPENSION/PLATE
  mutagenic call: inactive; negative
Test System: CHINESE HAMSTER OVARY, Strain/Indicator: CHO-K1-BH4 (HGPRT), Metabolic Activation: NONE, Method: SUSPENSION/PLATE
  mutagenic call: inactive; negative
Test System: CHINESE HAMSTER OVARY, Strain/Indicator: CHO-K1-BH4 (HGPRT), Metabolic Activation: RAT, LIVER, S-9, AROCLOR, Method: SUSPENSION/PLATE
  mutagenic call: inactive; negative
Test System: CHINESE HAMSTER V-79, Strain/Indicator: V-79 (HGPRT)/8-AZAGUANINE, Metabolic Activation: NONE, Method: REPLATING
  mutagenic call: inactive; negative
Test System: CHINESE HAMSTER V-79, Strain/Indicator: V-79 (HGPRT)/8-AZAGUANINE, Metabolic Activation: RAT, LIVER, S-9, AROCLOR 1254, Method: REPLATING
  mutagenic call: active; positive
Test System: CHINESE HAMSTER V-79, Strain/Indicator: V-79/6-THIOGUANINE, Metabolic Activation: NONE, Method: REPLATING
  mutagenic call: inactive; negative
Test System: CHINESE HAMSTER V-79, Strain/Indicator: V-79/6-THIOGUANINE, Metabolic Activation: RAT, LIVER, S-9, PHENOBARBITAL AND 5,6-BENZOFLAVONE, Method: REPLATING
  mutagenic call: active; positive
Test System: CHINESE HAMSTER V-79, Strain/Indicator: V-79/OUABAIN, Metabolic Activation: HAMSTER EMBRYO CELL-MEDIATED
  mutagenic call: inactive; negative
Test System: CHINESE HAMSTER V-79, Strain/Indicator: V-79/OUABAIN, Metabolic Activation: NONE
  mutagenic call: inactive; negative
Test System: CHINESE HAMSTER V-79, Strain/Indicator: V-79/OUABAIN, Metabolic Activation: RAT, LIVER, S-15, PHENOBARBITAL AND 5,6-BENZOFLAVONE
  mutagenic call: inactive; negative
Test System: E. COLI, Strain/Indicator: WP2 (PKM101), Metabolic Activation: RAT LIVER S-9, PHENOBARBITAL AND 5,6-BENZOFLAVONE, Method: STANDARD PLATE
  mutagenic call: inactive; negative
Test System: E. COLI, Strain/Indicator: WP2 UVRA (PKM101), Metabolic Activation: RAT LIVER S-9, PHENOBARBITAL AND 5,6-BENZOFLAVONE, Method: STANDARD PLATE
  mutagenic call: inactive; negative
Test System: MOUSE LYMPHOMA, Strain/Indicator: L5178Y (TK+/-)/TRIFLUROTHYMIDINE, Metabolic Activation: NONE, Method: SUSPENSION/PLATE
  mutagenic call: inactive; negative
Test System: MOUSE LYMPHOMA, Strain/Indicator: L5178Y (TK+/-)/TRIFLUROTHYMIDINE, Metabolic Activation: RAT LIVER S-9, AROCLOR 1254, Method: SUSPENSION/PLATE
  mutagenic call: inactive; negative
Test System: MOUSE LYMPHOMA, Strain/Indicator: L5178Y (TK+/TK-), Metabolic Activation: NONE, Method: SUSPENSION/PLATE
  mutagenic call: inactive; negative
Test System: MOUSE LYMPHOMA, Strain/Indicator: L5178Y (TK+/TK-), Metabolic Activation: RAT, LIVER, S-9, Method: SUSPENSION/PLATE
  mutagenic call: inactive; negative
Test System: MOUSE LYMPHOMA, Strain/Indicator: L5178Y (TK+/TK-), Metabolic Activation: S-9, Method: SUSPENSION/PLATE
  mutagenic call: active; positive
Test System: UDS RAT HEPATOCYTES, Strain/Indicator: THY INCORP, Metabolic Activation: NONE, Method: LIQUID SCINTILLATION COUNTING
  mutagenic call: active; positive
